Format in all cases: cell-based
One data set concerns HIV (HTLV-IIIB strain). Briefly: Infection inhibitory test: anti-HIV activity, MT-4 cells infected with HIV, MTT. Particulars: Human immunodeficiency virus 1, IIIB, MT4, 120 h. Here is the method: Anti-HIV activity and cytotoxicity are tested in the following manners.
(§1) (1) A human T cell MOLT-4 clone 8, a strain continuously infected with HIV (HTLV-IIIB strain), was incubated in RPMI-1640 medium containing 10% bovine fetus serum and the supernatant was isolated by filtration. After the determination of virus titer, the supernatant was stored at -80° C. A compound to be tested was diluted with the same medium to a given concentration and poured into 96-well microtiter plates by 100 μl/well. To the well is added 50 μl (2.5×10^4 cells) MT-4 cell suspensions, followed by the addition of 50 μl [600 pfu (plaque forming unit)] HIV-containing supernatant previously diluted with the same medium.
(§2) (2) After 5-day-incubation at 37° C. in a carbon dioxide incubator, 30 μl MTT {3-(4,5-diemthylthiazol-2-yl)-2,5-diphenyltetrazolium bromide), 5 mg/ml in PBS} was added to each well, and the incubation was continued for another 1 hour, during which surviving cells reduce MTT to precipitate folmazan.
(§3) The resultant folmazan was eluted by replacing 150 μl supernatant of a culture in each well by 150 μl solution comprising 10% triton X - 100 and isopropanol containing 0.4 v/v % HCl and shaking by means of a plate mixer. The resultant folmazan was assayed at 0D 540 nm, and the result was evaluated by comparison with that obtained in a control test.
IC50 is defined as a concentration of the compound (I) that gives a 50% inhibition against vital cytotoxicity.

The test system of another data set is MT-4 cell. In words: Cytotoxicity, MT-4 cells without virus, MTT. Particulars: 50% cytotoxicity; MT-4 cells without virus, 5-day incubation, MTT. Here is the method: as §1, §2, §3
(§4) Cytotoxicity of a compound (I) was evaluated in a similar manner as described in 1 above except that 50 μl of the same medium is added to each well in place of the HIV-containing supernatant (viral solurtion).
(§5) CC50 is defiend as a concentration of the compound (I) that gives 50% cytotoxicity.

Data set [1] can be described thus: Cytotoxicity, MT-4 cells without virus, MTT. Conditions: human. On the procedure:
as §1, §2, §3, §4, §5

Where [2] appears, read: 50% inhibition of viral cytotoxicity, MT-4 cells, 5-day incubation at 37 °C, MTT, read-out: IC50.

Molecules are shown by their SMILES. Values after ≈ are worked out from the molar mass of the structure shown. Where two headings read alike, the source gives them in different places.

For `Cc1cn([C@H]2C[C@H](N=[N+]=[N-])[C@@H](CO)O2)c(=O)[nH]c1=O` [AZT, azidodeoxythymidine, reference compound], the IC50 (in general, the point on the concentration scale where inhibition reaches its midpoint) in the data set with HIV (HTLV-IIIB strain) fell in the range of 0.005 to 0.01 µg/mL (≈ 0.0187 to 0.0374 µM). Besides, the CC50 (as a rule, the concentration giving 50% cytotoxicity) in the data set with MT-4 cell stood at 25 µg/mL (≈ 93.5 µM).

Turning to `CCc1nc(C)n(COCc2ccccc2)c1Sc1ccccc1` [Compound I-1, 1-benzyloxymethyl-4-ethyl-2-methyl-5-phenylthioimidazole], the IC50 in the data set with HIV (HTLV-IIIB strain) (setting [2]) fell in the range of 0.03 to 0.06 µg/mL (≈ 0.0886 to 0.177 µM).

Consider `CCc1ncn(COCc2ccccc2)c1Sc1ccccc1` [Compound I-4, 1-benzyloxymethyl-4-ethyl-5-phenylthioimidazole], for which, in the data set on HIV (HTLV-IIIB strain) (setting [2]), the IC50 lay in the range of 0.13 to 0.25 µg/mL (≈ 0.401 to 0.771 µM). Also, the CC50 at 120 h in data set [1] (mt-4 cells) lay in the range of 12.5 to 25 µg/mL (≈ 38.5 to 77.1 µM).

On to `c1ccc(COCn2cncc2Sc2ccccc2)cc1` [Compound I-5, 1-benzyloxymethyl-5-phenylthioimidazoe nitrate], for which, in the data set on HIV (HTLV-IIIB strain) (setting [2]), the IC50 lay within 0.13 to 0.25 µg/mL. Also, in data set [1] (mt-4 cells), the cytotoxic concentration (CC50) at 120 h was 12.5 to 25 µg/mL.

As to `CCCc1ncn(COCc2ccccc2)c1Sc1ccccc1` [Compound I-9], in data set [1] (mt-4 cells), the CC50 at 120 h is 12.5 to 25 µg/mL (≈ 36.9 to 73.9 µM).

As for `CCc1nc(Br)n(COCc2ccccc2)c1Sc1ccccc1` [Compound I-12], in the data set on HIV (HTLV-IIIB strain) (setting [2]), the IC50 is 0.06 to 0.13 µg/mL (≈ 0.149 to 0.322 µM). Further, the cytotoxic concentration (CC50) at 120 h in data set [1] (mt-4 cells) lay in the range of 12.5 to 25 µg/mL (≈ 31 to 62 µM).

For the compound `CCCc1nc(Br)n(COCc2ccccc2)c1Sc1ccccc1` [Compound I-13], the CC50 at 120 h in data set [1] (mt-4 cells) was 12.5 to 25 µg/mL (≈ 29.9 to 59.9 µM).

For `CCc1nc(C)n(COCc2ccccc2)c1Sc1cc(C)cc(C)c1` [Compound I-14], in the data set with HIV (HTLV-IIIB strain) (setting [2]), the IC50 was 0.016 to 0.032 µg/mL (≈ 0.0437 to 0.0873 µM). This compound also displayed a CC50 at 120 h in data set [1] (mt-4 cells) of 10 to 20 µg/mL (≈ 27.3 to 54.6 µM).

With `CCOCn1c(C)nc(CC)c1Sc1cc(C)cc(C)c1` [Compound I-15], in the data set with HIV (HTLV-IIIB strain) (setting [2]), the IC50 is 0.063 to 0.12 µg/mL (≈ 0.207 to 0.394 µM). In data set [1] (mt-4 cells), this compound gave a CC50 at 120 h of 10 to 20 µg/mL (≈ 32.8 to 65.7 µM).

With `Cc1cc(C)cc(Sc2c(C(C)C)nc(C)n2COCc2ccccc2)c1` [Compound I-16], the IC50 with HIV (HTLV-IIIB strain) (setting [2]) fell in the range of 0.016 to 0.031 µg/mL (≈ 0.042 to 0.0815 µM).

Regarding `Cc1nc(C(C)C)c(Sc2ccccc2)n1COCc1ccccc1` [Compound I-17], the IC50 in the data set with HIV (HTLV-IIIB strain) (setting [2]) came out at 0.016 µg/mL (≈ 0.0454 µM).

Regarding `CCOCn1c(C)nc(C(C)C)c1Sc1ccccc1` [Compound I-18], in the data set with HIV (HTLV-IIIB strain) (setting [2]), the IC50 worked out at 0.016 µg/mL (≈ 0.0551 µM). The CC50 at 120 h in data set [1] (mt-4 cells) is 25 to 50 µg/mL (≈ 86.1 to 172 µM).

Consider `CCc1nc(C)n(COCCO)c1Sc1cc(C)cc(C)c1` [Compound I-29, 5-(3,5-Dimethylphenylthio)-4-ethyl-1-[(2-hydroxyethoxy)-methyl]-2-methylimidazole], for which the IC50 in the data set on HIV (HTLV-IIIB strain) (setting [2]) fell in the range of 0.13 to 0.25 µg/mL (≈ 0.406 to 0.78 µM). In data set [1] (mt-4 cells), this compound had a CC50 at 120 h of 25 to 50 µg/mL (≈ 78 to 156 µM).

For the compound `Cc1nc(C(C)C)c(Cc2ccccc2)n1COCc1ccccc1` [Compound I-42, 5-Benzyl-1-benzyloxymethyl-4-isopropyl-2-methylimidazole], the IC50 in the data set on HIV (HTLV-IIIB strain) (setting [2]) is 0.016 µg/mL (≈ 0.0478 µM). Further, the CC50 at 120 h in data set [1] (mt-4 cells) was in the range of 3.1 to 6.25 µg/mL (≈ 9.27 to 18.7 µM).

Regarding `Cc1cc(C)cc(Cc2c(C(C)C)nc(C)n2COCc2ccccc2)c1` [Compound I-50], the IC50 with HIV (HTLV-IIIB strain) (setting [2]) came to 0.016 µg/mL (≈ 0.0441 µM). The same compound came in with a CC50 at 120 h in data set [1] (mt-4 cells) of 6.25 to 12.5 µg/mL (≈ 17.2 to 34.5 µM).

For `CCOCn1c(C)nc(C(C)C)c1Cc1cccnc1` [Compound I-58], in the data set with HIV (HTLV-IIIB strain) (setting [2]), the IC50 was determined as 0.5 µg/mL (≈ 1.83 µM). The 50% cytotoxic concentration (CC50) at 120 h in data set [1] (mt-4 cells) is greater than 100 µg/mL.

On to `CCOCn1c(C)nc(C(C)C)c1Cc1cc(Cl)cc(Cl)c1` [Compound I-67], for which the IC50 with HIV (HTLV-IIIB strain) (setting [2]) is 0.005 µg/mL (≈ 0.0147 µM). Also, the CC50 at 120 h in data set [1] (mt-4 cells) lay within 6.25 to 12.5 µg/mL (≈ 18.3 to 36.6 µM).

On to `Cc1nc(C(C)C)c(Cc2cc(F)cc(F)c2)n1COCc1ccccc1` [Compound I-69], for which the concentration for half-maximal inhibition (IC50) in the data set with HIV (HTLV-IIIB strain) (setting [2]) turned out to be 0.003 µg/mL (≈ 0.0081 µM). This compound also had a CC50 at 120 h in data set [1] (mt-4 cells) of 6.25 to 12.5 µg/mL (≈ 16.9 to 33.7 µM).

Turning to `CCOCn1c(C)nc(Cc2cc(Cl)cc(Cl)c2)c1C(C)C` [Compound I-90], in the data set with HIV (HTLV-IIIB strain) (setting [2]), the IC50 is 0.5 to 1 µg/mL (≈ 1.47 to 2.93 µM). In data set [1] (mt-4 cells), this compound displayed a CC50 at 120 h of 1 to 10 µg/mL (≈ 2.93 to 29.3 µM).

With `Cc1nc(Cc2cc(Cl)cc(Cl)c2)c(C(C)C)n1COCc1ccccc1` [Compound I-91], the IC50 with HIV (HTLV-IIIB strain) (setting [2]) was 0.5 to 1 µg/mL (≈ 1.24 to 2.48 µM). In data set [1] (mt-4 cells), this compound registered a CC50 at 120 h of 10 to 100 µg/mL (≈ 24.8 to 248 µM).

`Cc1nc(Cc2cc(F)cc(F)c2)c(C(C)C)n1COCc1ccccc1` [Compound I-92]: the IC50 in the data set with HIV (HTLV-IIIB strain) (setting [2]) worked out at 0.25 µg/mL (≈ 0.675 µM). The CC50 at 120 h in data set [1] (mt-4 cells) is 6.25 to 12.5 µg/mL (≈ 16.9 to 33.7 µM).

Regarding `CCOCn1c(C)nc(Cc2cc(F)cc(F)c2)c1C(C)C` [Compound I-93], the IC50 in the data set on HIV (HTLV-IIIB strain) (setting [2]) came to 0.06 µg/mL (≈ 0.195 µM). In data set [1] (mt-4 cells), the CC50 at 120 h is 12.5 to 25 µg/mL (≈ 40.5 to 81.1 µM).

Take `CC(C)=CCN1Cc2cc(Cl)cc3[nH]c(=S)n(c23)C[C@@H]1C` [TIBO (R-82913), reference compound]: the IC50 in the data set with HIV (HTLV-IIIB strain) (setting [2]) is 0.13 to 0.25 µg/mL (≈ 0.404 to 0.777 µM). In addition, in data set [1] (50% cytotoxicity, MT-4 cells without virus, 5-day incubation, MTT, read-out: CC50), the CC50 at 120 h is 12.5 to 25 µg/mL (≈ 38.8 to 77.7 µM).

The record behind these values is US5326780A, “Imidazole derivatives having anti-HIV activity” (priority 1992, dated 1994).
